# Patent publication US11851670B2, “Nucleic acid constructs encoding reprogramming factors linked by self-cleaving peptides” (Whitehead Institute for Biomedical Research, priority 2008, dated 2023)
# How the values were obtained:
# ES cells = conditions: chemically defined medium, absence of LIF; cited from earlier work
# NGFP3 secondary MEFs = test: Effect of drugs on dox-induced reprogramming of secondary MEFs (GFP+ colony count); format: cell-based, mouse; conditions: dox plus 1 μM compound for two 48 h periods
# Source text: We also tested whether the secondary cells could be used to assess the effect of drugs on the efficiency of reprogramming. For this we explored the effects of the DNA demethylating compound 5-Aza-deoxycytidine (5-Aza) and the histone deacetylase inhibitor trichostatin A (TSA). Because of their action on chromatin modifications both small molecules are candidates to improve the 5reprogramming efficiency.
# For MEF isolation, chimeric embryos were isolated at E13.5 and the head and internal (including reproductive) organs were removed. Remaining tissue was physically dissociated and incubated in trypsin at 37° C. for 20 minutes, after which cells were resuspended in MEF media containing puromycin (2 μg/mL) and expanded for two passages prior to freezing. Secondary MEFs used for the described experiments were thawed and experiments plated 1-2 passages after thawing. Kinetic experiments (FIG. 2) were performed by plating 4×10^4 secondary MEFs per well in 6 well plates and plates were stained or analyzed at the indicated times. Cell density experiments were performed in 12 well plates and GFP+ iPS colonies were scored 4 weeks after dox induction. Single cell efficiency experiments were performed by plating single secondary MEFs onto a layer of wildtype feeder MEFS in 96 well plates prior to dox induction (using limiting dilutions, which were confirmed by eye in replicate plates lacking feeder MEFs). iPS formation was scored 4 weeks later. Representative experiments from 2-3 biological replicates are shown. For 5-Aza and TSA experiments, […] secondary MEFs were plated in 6 well plates (approx 100 cells/mm^2) and pretreated with ES cell media containing 5-Aza (1 μM) or TSA (1 μM) for 48 h. After 48 h, secondary MEFs were cultured in ES cell media plus dox lacking 5-Aza or TSA. MEFS were exposed to 5-Aza or TSA for a second 48 h period between days 8-10 after induction, followed by culture with dox only until scoring GFP+ colonies on day 21.
# SOX2-ER fusion construct = test: Tamoxifen-dependent activation of SOX2-ER fusion construct in transduced fibroblasts; format: cell-based, human; conditions: cells transduced with SOX2-ER fusion construct
# Source text: (a) DOX inducible lentivirus vectors: Following the same strategy as used for murine genes we have generated lentiviral vectors that transduce the human OCT4, SOX2, KLF4 and C-MYC c-DNAs either constitutively or under the control of a DOX inducible promoter [Brambrink, 2008 #6877]. To generate a DOX inducible system we infected human fibroblasts with a lentiviral vector carrying the rtTA transactivator. […] (b) Tamoxifen inducible lentivirus vectors: To enable independent inducible control of vectors we also generated OCT4, SOX2 and C-MYC estrogen receptor (ER) fusion constructs by fusing the factors to the estrogen ligand binding domain to allow for tamoxifen dependent expression [Grandori, 1996 #6505].
# mouse fibroblasts = conditions: treatment decreasing global DNA methylation; cited from earlier work
# huES cells = conditions: cited from earlier work
compound,measurement,setting,value
Cc1cc(Nc2ncc3c(n2)N(C)C(=O)N(c2cc(NC(=O)c4cccc(C(F)(F)F)c4)ccc2C)C3)n(C)n1 [pluripotin],self renewal of ES cells,ES cells,sustains self renewal of ES cells
"CC(/C=C/C(=O)NO)=C\[C@@H](C)C(=O)c1ccc(N(C)C)cc1 [TSA, trichostatin A]",reprogramming efficiency (number of GFP+ colonies),NGFP3 secondary MEFs; GFP+ colonies scored on day 21,no obvious effect on the number of colonies
CC/C(=C(\c1ccccc1)c1ccc(OCCN(C)C)cc1)c1ccccc1 [tamoxifen],localisation of SOX2 protein after tamoxifen addition,SOX2-ER fusion construct,translocation of the SOX2 protein from the cytoplasm to the nucleus
"Nc1ncn([C@H]2C[C@H](O)[C@@H](CO)O2)c(=O)n1 [5-Aza, 5-Aza-deoxycytidine]",reprogramming efficiency (number of GFP+ colonies),NGFP3 secondary MEFs; GFP+ colonies scored on day 21,increased the reprogramming efficiency
same,reprogramming efficiency (number of GFP+ colonies),"NGFP3 secondary MEFs; GFP+ colonies scored on day 21, listed as 5-Aza-deoxycytidine",substantially enhances the reprogramming efficiency
same,reprogramming of mouse fibroblasts,mouse fibroblasts,enhance reprogramming of mouse fibroblasts
C[C@@H](N)[C@H]1CC[C@H](C(=O)Nc2ccncc2)CC1 [Y-27632],cloning efficiency,huES cells,increase cloning efficiency
same,dissociation-induced apoptosis,huES cells,markedly diminish dissociation-induced apoptosis
